Measurements published in US5807691A, “Polypeptides having serotonin receptor activity (5HT5A), nucleic acids coding for these polypeptides and uses thereof” (Institut National De La Sante et Da La Recherche Medicale, priority 1992, dated 1998).
Read-outs that look alike come from different tables or passages of the source.

What was measured:
5HT1D [1] = conditions: cited from earlier work
5HT1D [2] = conditions: cited from earlier work; remark: listed apart in the source
5HT5a receptor [3] = biological target: 5HT5a receptor
5HT5a receptor [4] = tested on: 5HT5a receptor; remark: listed apart in the source
5HT5a receptor [5] = test: Saturation binding of radiolabelled serotonin ligands to membranes of Cos-7 cells expressing the 5HT5a receptor; set-up: species or system rat; conditions: 10 minutes at 37° C., 50 mM Tris-HCl pH 7.4
Description: The specific binding is shown.
(§1) Radioactivity was measured with a γ counter.

5HT5a receptor [6] = test: [^125 I]-LSD binding to membranes of NIH-3T3 clones NS1 and NS4 expressing the 5HT5a receptor; set-up: species or system rat
Description: as §1
For this purpose, the recombinant expression vector described in 3. above was used. […] The transformant clones were selected in the presence of 0.5 mg of G418. The clones isolated were then amplified, and the total RNAs of these clones were prepared and analysed by Northern blotting for the expression of 5HT5a mRNA.
The membranes of the cells of these clones were then prepared and tested under the conditions described above for their capacity to bind some labelled serotonin ligands, and to determine the affinity of the receptors for the said ligands.
Different displacement experiments were then carried out (Table 1).

Compound | pKi 5HT1D (rat cortex) (5HT1D [1]) | pKi 5HT1D (Calf caudate) (5HT1D [2]; Calf caudate) | further results
CC(C)NCC(O)COc1cccc2[nH]ccc12 (racemic) [(±)Pindolol] | < 5 | 5.2 | –
NCCc1c[nH]c2ccc(C(N)=O)cc12 [5-CT] | 8.6 | 8.6 | –
NCCc1c[nH]c2ccc(O)cc12 [5-HT, 5-hydroxytryptamine] | 8.7 | 8.4 | –
CCCN(CCC)C1CCc2cccc(O)c2C1 (stereo not drawn) [8-OH-DPAT] | 6.6 | 5.9 | –
NC[C@H](O)c1ccc(O)c(O)c1 [(-)Norepinephrine] | – | – | Ki (5HT5a receptor [3]): 1580 µM
CN(C)CCc1c[nH]c2ccc(O)cc12 [Bufotenine] | – | 8.1 | –
NCCc1ccc(O)c(O)c1 [Dopamine] | – | – | Ki (5HT5a receptor [3]): 79.4 µM
CN1C[C@H](C(=O)N[C@]2(C)O[C@@]3(O)[C@@H]4CCCN4C(=O)[C@H](Cc4ccccc4)N3C2=O)C=C2c3cccc4[nH]cc(c34)C[C@H]21 [Ergotamine] | – | – | pKi 5HT5 (Cos-7) (5HT5a receptor [4]): 8.4; pKi 5HT1D (Calf caudate) (5HT1D [2]): 7.8
O=C(c1ccc(F)cc1)C1CCN(CCn2c(=O)[nH]c3ccccc3c2=O)CC1 [Ketanserin] | < 5 | 5.7 | Ki (5HT5a receptor [3]): 15.8 µM
COc1ccc2[nH]cc(C3=CCNCC3)c2c1 [RU24969] | – | 7.3 | –
CNS(=O)(=O)Cc1ccc2[nH]cc(CCN(C)C)c2c1 [Sumatriptan] | – | 7.5 | –
FC(F)(F)c1cccc(N2CCNCC2)c1 [TFMPP] | 6.6 | 6.2 | –
COC(=O)[C@@H]1[C@H]2C[C@H]3c4[nH]c5ccccc5c4CCN3C[C@@H]2CC[C@@H]1O [Yohimbine] | – | – | pKi 5HT1D (Calf caudate) (5HT1D [2]): 7.1
CCCN(CCC)C1CCc2cccc(O)c2C1 (stereo not drawn) [[^3 H]-8-OH-DPAT] | – | – | binding of radiolabelled ligand to membranes of transfected Cos-7 cells (5HT5a receptor [5]): do not bind
O=C(CCCN1CCC2(CC1)C(=O)NCN2c1ccccc1)c1ccc(F)cc1 [[^3 H]-spiperone] | – | – | binding of radiolabelled ligand to membranes of transfected Cos-7 cells (5HT5a receptor [5]): do not bind
CCN(CC)C(=O)[C@@H]1C=C2c3cccc4[nH]c([125I])c(c34)C[C@H]2N(C)C1 [[^125 I]-LSD] | – | – | binding sites for [^125 I]-LSD on membranes of clones NS1 and NS4 (5HT5a receptor [6]): high-affinity binding sites; binding of radiolabelled ligand to membranes of transfected Cos-7 cells (5HT5a receptor [5]): possesses a saturable binding site; Kd (5HT5a receptor [5]; Cos-7 membranes, non-specific binding with 10 μM 5HT, FIG. 2): 0.00034 µM
CC(C)(C)NCC(O)COc1cccc2[nH]c(C#N)c([125I])c12 (stereo not drawn) [[^125 I]-cyanopindolol] | – | – | binding of radiolabelled ligand to membranes of transfected Cos-7 cells (5HT5a receptor [5]): do not bind
